From patent publication US12527746B2, “Peptide/particle delivery systems” (The Johns Hopkins University, priority 2009, dated 2026)
Non-standard residues stand in square brackets, D forms with d. No end group written: not given here. Abu = CC[C@H](N)C(=O)O

Legend:
CNV laser mouse model = assay: CNV laser mouse model, intravitreous injection, choroidal flat mounts; type: in vivo, C57 BL/6 female mice; conditions: day 14
Source text: Referring now to FIG. 9 is shown in vivo 336 polymer nanoparticle/SP6001 DEAH peptide (“DEAH” disclosed as SEQ ID NO: 2484); Peptide-336 polymer nanoparticles were formulated as previously described and intravitreously injected to test in vivo efficacy. ACNV laser mouse model was used on C57 BL/6 female mice. The mice receive laser eye treatments on day zero, followed by the intravitreous injections. Mice are then perfused with fluorescein labeled dextran on day 14 and choroidal flat mounts (bottom) were analyzed via fluorescence microscopy.
Referring now to FIG. 49 in shown the in vivo effects of microparticle formulations in both the CNV and rho/VEGF model over time. DEAH (SP6001)-336 PBAE nanoparticle formulation made as described previously (“DEAH” disclosed as SEQ ID NO: 2484). […] (Middle) and (Bottom) A genetic model of wet form of age-related macular degeneration in mice used to test long-term effect of microparticles. […] While PLGA is used to form the microparticles used above, other polymers may be used including the synthetic polyesters and polyamides described above. […]

[1] = tested on: MDA-MB-231 tumor xenograft; assay: MDA-MB-231 breast cancer xenograft, orthotopic, i.p. peptide; set-up: species or system SCID mice; conditions: mouse, in vivo
Source text: BMC Cancer 2010; 10:29, and in a breast cancer xenograft model using MDA-MB-231 cells. Koskimaki J E, Karagiannis E D, Rosca E V, Vesuna F, Winnard P T, Jr., Raman V, et al. Peptides derived from type IV collagen, CXC chemokines, and thrombospondin-1 domain-containing proteins inhibit neovascularization and suppress tumor growth in MDA-MB-231 breast cancer xenografts. Neoplasia 2009; 11(12):1285-91.
Following orthotopic inoculation of SCID mice in the mammary fat pad area using 2×10^6 cells, tumors grew to approximately 100 mm^3 in 2 weeks; at that time 100 μL of peptide solution was injected i.p. once a day at peptide doses 10-20 mg/kg. PBS solution was injected as control. […] The microvessel density was determined by screening the immunohistologically stained CD31 sections. Inhibition of LEC migration in the ACEA migration assay also was determined (see FIG. 33B).

rho/VEGF (V6) mouse = assay: rho/VEGF (V6) mouse, genetic model of wet age-related macular degeneration; type: in vivo, mice; conditions: 8 weeks after injection
Source text: Referring now to FIG. 49 in shown the in vivo effects of microparticle formulations in both the CNV and rho/VEGF model over time. DEAH (SP6001)-336 PBAE nanoparticle formulation made as described previously (“DEAH” disclosed as SEQ ID NO: 2484). […] (Middle) and (Bottom) A genetic model of wet form of age-related macular degeneration in mice used to test long-term effect of microparticles. […] While PLGA is used to form the microparticles used above, other polymers may be used including the synthetic polyesters and polyamides described above. In certain embodiments, blends of these polymer are combined with PLGA to form microparticles with differing environmental sensitivity and release properties; (a) the effect of microparticle (SP-6001) in CNV model mouse; (b) the effect of microparticle (SP-6001) in rho/VEGF (V6) mouse, 1 week after injection; and (c) the effect of microparticle (SP-6001) in rho/VEGF (V6) mouse, 8 weeks after injection.

endothelial cells [2] = assay: Anti-proliferative and anti-migratory activity of free peptides on endothelial cells; type: cell-based
Source text: Several classes of peptides have been developed that show either anti-proliferative or anti-migratory activity or both on endothelial cells. These peptides appear to function through distinct mechanisms of action and have been tested both in vitro and in vivo in tumor xenografts and in ocular mouse models.
(§1) It is believed that this peptide is the first antilymphangiogenic peptide agent.

[3] = tested on: lymphatic endothelial cells; assay: Anti-proliferative and anti-migratory activity of free peptides on lymphatic endothelial cells; type: cell-based
Source text: as §1

endothelial cells [4] = assay: Endothelial cell proliferation, peptides encapsulated in polymeric particles vs free peptides; type: cell-based; conditions: encapsulated within polymeric particles compared to unencapsulated
Source text: Changes to polymer structure, including small changes to the ends of the polymer only, can vary biophysical properties of these particles. These properties can be important to tune for effective in vivo peptide delivery. A small subset of the potential polymer library was screened to measure the effect of encapsulating the antiangiogenic peptides chemokinostatin-1 and pentastatin-1 within polymeric particles compared to unencapsulated, free peptides. […] An example of representative polymers encapsulating peptides is provided in Scheme 5.

Row | Substance | anti-proliferative and anti-migratory activity (endothelial cells [2]) | inhibition of endothelial cell proliferation (endothelial cells [4]) | further results
1 | EIELVEEEPPF [SP6001, 11-mer anti-angiogenic peptide derived from the serpin domain of DEAH box polypeptide] |  |  | angiogenesis in the eye (CNV laser mouse model): significantly reduced angiogenesis; tumor xenograft growth [1]: significant inhibition; inhibition of angiogenesis (rho/VEGF (V6) mouse): no longer inhibits angiogenesis
2 | LLRISLLLIESWLE [SP5033] | anti-proliferative and anti-migratory activity |  | anti-proliferative and anti-migratory activity [3]: anti-proliferative and anti-migratory activity
3 | LRRFSTMPFMF-Abu-NINNV-Abu-NF (LRRFSTMPFMF[Abu]NINNV[Abu]NF; listed as Homo sapiens) [SP2012] | highly potent anti-proliferative and anti-migratory |  | 
4 | LRRFSTMPFMFCNINNVCNF [Pentastatin] |  | enhanced the ability of the peptides to inhibit the proliferation of endothelial cells | 
5 | NGRKACLNPASPIVKKIIEKMLNS [Chemokinostatin] |  | enhanced the ability of the peptides to inhibit the proliferation of endothelial cells | 
